According to publication PMC6171423, “Benzofuran–appended 4-aminoquinazoline hybrids as epidermal growth factor receptor tyrosine kinase inhibitors: synthesis, biological evaluation and molecular docking studies” (Journal of Enzyme Inhibition and Medicinal Chemistry, 2018):
Read-outs that look alike come from different tables or passages of the source.

Key:
[1] = tested on: human lung cancer (A549) cells; test: cells; settings: A549, 48 h, read-out: Cancer cells LC50 A549
Description: (§5) The cytotoxic activities of the compounds were screened against the C3A/HepG2 human liver cells, human colorectal tumor (Caco-2) cells, the human lung carcinoma (A549) and the cervical cancer (HeLa) cells. The lethal concentration was determined using the 3–(4,5-dimethylthiazol)-2,5-diphenyl tetrazolium bromide (MTT) assay previously developed by Mosmann[20]. The cells were maintained in Dubelsco minimal essential medium (DMEM, Highveld Biological, South Africa) supplemented with 10% fetal calf serum (Adcock-Ingram, Midrand, South Africa) and sodium pyruvate for C3A liver cells. Cell suspensions were prepared from confluent monolayer cultures and plated at a density of 0.1 × 10^6 cells into each well of 96-well microtitre plates. For cell attachment, plates were incubated for 24 h at 37 °C in a 5% CO2 incubator prior to the exposure. The compounds were dissolved in DMSO (5 mg/mL) and appropriate dilutions were prepared, added to the wells and incubated for 48 h. Doxorubicin hydrochloride (Pfizer Laboratories, Sandton, South Africa) was used as a positive control while DMSO was the negative control. After incubation for 48 h, the wells were rinsed with 150 µL of phosphate buffered saline PBS (Sigma-Aldrich, GmBH, Schnelldorf, Germany) and 200 µL of fresh medium was dispensed into the wells. MTT was dissolved in PBS (30 µL) then added to each well and the contents were incubated for 4 h at 37 °C. The medium was removed and MTT formazan crystals were dissolved in 50 µL DMSO. The amount of MTT reduction was measured immediately by detecting the absorbance using a BioTek microplate reader (BioTek Synergy, Analytical and Diagnostic Products, Johannesburg, South Africa) at a wavelength of 570 nm. Each dilution of the test sample was assayed in quadruplicate and the experiments were repeated three times. The percentage of cell viability and the LC50 values for each compound tested were calculated as described before[10].

[2] = tested on: colorectal adenocarcinoma (Caco-2) cells; test: cells; settings: Homo sapiens, Caco-2, 48 h, read-out: Cancer cells LC50 Caco-2
Description: as §5

human EGFR (EGFR-TK) = human EGFR (EGFR-TK) (Homo sapiens, UniProt P00533); test: Inhibition of EGFR-TK (ELISA)
[3] = tested on: hepatocellular carcinoma (C3A; HepG2/C3A) cells; test: cells; settings: Homo sapiens, 48 h
Description: as §5

[4] = tested on: cervical cancer (HeLa) cells; test: cells; settings: Homo sapiens, 48 h, read-out: Cancer cells LC50 HeLa
Description: as §5

[5] = tested on: Human Caspase-3 (Asp175) activity in C3A cells; test: Caspase-3 colorimetric assay, C3A; format: cell-based; settings: 24 h, Gefitinib as reference
Description: (§1) Caspase-3 activity was detected by means of Caspase-3 Colorimetric Assay Kit (Abcam, Cambridge, MA, USA). The cells were cultured in 24 well plates and treated for 24 h. The cells were then washed with PBS buffer and lysed on ice. The experiments were carried out according to the manufacturer’s instructions. Optical density was measured at absorbance of 450 nm using the BioTek microplate reader. The concentration of active Caspase-3 (Asp 175) were measured in duplicates and interpolated from the active caspase-3 (Asp 175) standard curve and corrected for sample dilution.
(§2) A major biochemical feature of apoptosis is the activation of caspases (caspase-2, -3, -6, -7, -8, -9, and -10), which play a central role in the morphological changes associated with apoptosis. Activation of caspase-3, for example, is critically important for the induction of apoptotic pathways. Consequently, we evaluated compounds 10d and 10j for potential to induce caspase-3 activation in C3A and Caco-2 cells using Gefitinib as a reference standard (Figure 4).

C3A cells = test: Annexin V/PI apoptosis assay by flow cytometry, C3A; format: cell-based, human; settings: 5 and 12.5 µM, 24 h
Description: (§3) Apoptotic cells were quantified using flow cytometry. The C3A or Caco-2 cells were cultured in 24 well plates and each was then treated with compound 10d or 10j at concentrations 5, 12.5 and 25 µM against doxorubicin hydrochloride (0.20 µM) as a reference standard, respectively. After the cells were incubated for 24 h, both treated and untreated cells were harvested, washed two times with ice PBS and then adjusted at a density of 1 x 10^6 cells/sample. Cells were harvested and transferred into plastic flow tubes (BD Biosciences, South Africa). The cells were, in turn, stained with Annexin-V-FUOS staining kit (Roche, Mannheim, Germany) according to the manufacturer’s instructions. The cells were analyzed using Becton, Dickinson and Company FACS Accuri flow cytometer.
(§4) We selected compounds 10d and 10j to evaluate whether they induce apoptosis in the C3A and Caco-2 cell lines against doxorubicin hydrochloride as a reference standard, respectively. The population of apoptotic cells was determined by means of Annexin-V and propium iodide (PI) double staining by flow cytometry, which is a useful tool for evaluation of molecular and morphological events that take place during cell death and cell proliferation. […]

[6] = tested on: Human Caspase-3 (Asp175) activity in Caco-2 cells; test: Caspase-3 colorimetric assay, Caco-2; format: cell-based; settings: 24 h, Gefitinib as reference
Description: as §1, §2

Caco-2 cells = test: Annexin V/PI apoptosis assay by flow cytometry, Caco-2; format: cell-based, human; settings: 5 and 12.5 µM, 24 h
Description: as §3, §4

[7] = tested on: hepatocellular carcinoma (C3A; HepG2/C3A) cells; settings: human, 48 h
Description: as §5

[8] = read-out: Cancer cells LC50 C3A
[9] = read-out: IC50 against EGFR-TK, ELISA, purified EGFR

human EGFR (EGFR-TK), sequence (P00533 25-1210): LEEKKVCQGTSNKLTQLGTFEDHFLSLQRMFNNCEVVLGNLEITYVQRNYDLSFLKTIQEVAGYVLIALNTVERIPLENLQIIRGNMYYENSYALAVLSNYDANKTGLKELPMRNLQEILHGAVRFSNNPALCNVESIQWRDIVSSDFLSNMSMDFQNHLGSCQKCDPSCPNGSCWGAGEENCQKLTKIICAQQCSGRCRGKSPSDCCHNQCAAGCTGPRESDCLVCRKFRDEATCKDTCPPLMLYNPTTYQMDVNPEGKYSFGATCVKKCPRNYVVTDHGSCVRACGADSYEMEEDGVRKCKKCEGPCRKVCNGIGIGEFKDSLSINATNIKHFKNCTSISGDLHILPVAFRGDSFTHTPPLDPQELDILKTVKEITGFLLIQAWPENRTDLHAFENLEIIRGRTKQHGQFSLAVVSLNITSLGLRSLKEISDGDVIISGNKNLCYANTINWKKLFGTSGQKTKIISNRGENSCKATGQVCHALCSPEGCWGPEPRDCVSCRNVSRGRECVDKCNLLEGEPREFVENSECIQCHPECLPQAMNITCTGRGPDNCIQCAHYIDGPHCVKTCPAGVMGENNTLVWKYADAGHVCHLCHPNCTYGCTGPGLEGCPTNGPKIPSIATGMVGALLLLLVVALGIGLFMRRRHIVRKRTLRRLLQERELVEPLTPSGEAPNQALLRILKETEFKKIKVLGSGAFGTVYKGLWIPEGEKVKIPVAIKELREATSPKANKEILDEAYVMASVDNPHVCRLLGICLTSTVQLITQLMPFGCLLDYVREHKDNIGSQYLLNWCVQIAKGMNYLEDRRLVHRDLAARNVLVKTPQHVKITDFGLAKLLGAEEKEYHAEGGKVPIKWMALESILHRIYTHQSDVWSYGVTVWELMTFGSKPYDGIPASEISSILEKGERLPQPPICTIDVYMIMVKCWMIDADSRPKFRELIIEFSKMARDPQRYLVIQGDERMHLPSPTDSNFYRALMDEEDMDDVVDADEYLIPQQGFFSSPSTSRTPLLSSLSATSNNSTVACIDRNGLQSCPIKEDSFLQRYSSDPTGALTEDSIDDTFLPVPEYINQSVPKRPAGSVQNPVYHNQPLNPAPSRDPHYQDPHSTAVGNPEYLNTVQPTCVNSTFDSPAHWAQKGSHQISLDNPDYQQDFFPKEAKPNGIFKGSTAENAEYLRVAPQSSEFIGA

| SMILES | CC50 [1] | CC50 [2] | IC50 (human EGFR (EGFR-TK)) | CC50 [3, 8] | CC50 [4] | IC50 (human EGFR (EGFR-TK); [9]) | caspase-3 activation [5] | induction of apoptosis (C3A cells) | caspase-3 activation [6] | induction of apoptosis (Caco-2 cells) | CC50 ([3]; read-out: Cancer cells LC50 C3A, MTT, 48 h, C3A) | CC50 [7] |
| --- | --- | --- | --- | --- | --- | --- | --- | --- | --- | --- | --- | --- |
| Fc1ccc(-c2nc(Nc3cc(Br)cc4cc(-c5ccccc5)oc34)c3cc(Br)ccc3n2)cc1 [Compound 10a, 6-Bromo-N-(5-bromo-2-phenylbenzofuran-7-yl)-2–(4-fluorophenyl)quinazolin-4-amine] | 64.7 ± 0.11 µM | 96.3 ± 0.1 µM | 0.1113 ± 0.00042 µM | 81 ± 0.03 µM | 17.6 ± 0.39 µM | – | – | – | – | – | – | – |
| Fc1ccc(-c2nc(Nc3cc(Br)cc4cc(-c5cccc(F)c5)oc34)c3cc(Br)ccc3n2)cc1 [Compound 10b, 6-Bromo-N-(5-bromo-2–(3-fluorophenyl)benzofuran-7-yl)-2–(4-fluorophenyl)quinazolin-4-amine] | 54.3 ± 0.19 µM | 83.9 ± 0.07 µM | – | 90.1 ± 0.02 µM | 47 ± 0.38 µM | 0.1225 ± 0.0005 µM | – | – | – | – | – | – |
| Fc1ccc(-c2nc(Nc3cc(Br)cc4cc(-c5ccc(F)cc5)oc34)c3cc(Br)ccc3n2)cc1 [Compound 10c, 6-Bromo-N-(5-bromo-2–(4-fluorophenyl)benzofuran-7-yl)-2–(4-fluorophenyl)quinazolin-4-amine] | 52.6 ± 0.2 µM | 98.8 ± 0.02 µM | 0.0522 ± 0.00018 µM | > 100 µM | 11.4 ± 0.56 µM | – | – | – | – | – | – | – |
| Fc1ccc(-c2nc(Nc3cc(Br)cc4cc(-c5cccc(Cl)c5)oc34)c3cc(Br)ccc3n2)cc1 [Compound 10d, 6-Bromo-N-(5-bromo-2–(3-chlorophenyl)benzofuran-7-yl)-2–(4-fluorophenyl)quinazolin-4-amine] | 65.1 ± 0.12 µM | 47.7 ± 0.01 µM | – | 9 ± 0.01 µM | 22.1 ± 1.1 µM | 0.0293 ± 2e-05 µM | induce apoptosis through activation of caspase-3 | induced apoptosis | – | – | – | – |
| Fc1ccc(-c2nc(Nc3cc(Br)cc4cc(-c5ccc(OC(F)(F)F)cc5)oc34)c3cc(Br)ccc3n2)cc1 [Compound 10e, 6-Bromo-N-(5-bromo-2–(4-(trifluoromethoxy)phenyl)benzofuran-7-yl)-2–(4-fluorophenyl) quinazolin-4-amine] | 97.6 ± 0.07 µM | 65.2 ± 0.1 µM | – | > 100 µM | 23.4 ± 0.49 µM | 0.0311 ± 0.00012 µM | – | – | – | – | – | – |
| Clc1ccc(-c2nc(Nc3cc(Br)cc4cc(-c5ccccc5)oc34)c3cc(Br)ccc3n2)cc1 [Compound 10f, 6-Bromo-N-(5-bromo-2-phenylbenzofuran-7-yl)-2–(4-chlorophenyl)quinazolin-4-amine] | 48 ± 0.1 µM | 75 ± 0.02 µM | – | 73.9 ± 0.02 µM | 15.4 ± 0.45 µM | – | – | – | – | – | – | – |
| Fc1cccc(-c2cc3cc(Br)cc(Nc4nc(-c5ccc(Cl)cc5)nc5ccc(Br)cc45)c3o2)c1 [Compound 10g, 6-Bromo-N-(5-bromo-2–(3-fluorophenyl)benzofuran-7-yl)-2–(4-chlorophenyl)quinazolin-4-amine] | 78.5 ± 0.15 µM | 94.4 ± 0.02 µM | – | 79.1 ± 0.01 µM | 53.5 ± 4.46 µM | 0.1329 ± 0.00055 µM | – | – | – | – | – | – |
| Fc1ccc(-c2cc3cc(Br)cc(Nc4nc(-c5ccc(Cl)cc5)nc5ccc(Br)cc45)c3o2)cc1 [Compound 10h, 6-Bromo-N-(5-bromo-2–(4-fluorophenyl)benzofuran-7-yl)-2–(4-chlorophenyl)quinazolin-4-amine] | 74.1 ± 0.21 µM | 49.1 ± 0.01 µM | – | > 100 µM | 28.6 ± 1.12 µM | 0.1257 ± 0.00052 µM | – | – | – | – | – | – |
| Clc1ccc(-c2nc(Nc3cc(Br)cc4cc(-c5cccc(Cl)c5)oc34)c3cc(Br)ccc3n2)cc1 [Compound 10i, 6-Bromo-N-(5-bromo-2–(3-chlorophenyl)benzofuran-7-yl)-2–(4-chlorophenyl)quinazolin-4-amine] | 86.6 ± 0.16 µM | 33.5 ± 0.1 µM | – | 68.2 ± 0.02 µM | 75.1 ± 5.25 µM | 0.0902 ± 0.00034 µM | – | – | – | – | – | – |
| FC(F)(F)Oc1ccc(-c2cc3cc(Br)cc(Nc4nc(-c5ccc(Cl)cc5)nc5ccc(Br)cc45)c3o2)cc1 [Compound 10j, 6-Bromo-N-(5-bromo-2–(4-(trifluoromethoxy)phenyl)benzofuran-7-yl)-2–(4-chlorophenyl) quinazoline-4-amine] | 47.4 ± 0.07 µM | 18.4 ± 0.07 µM | – | > 100 µM | 28.1 ± 0.79 µM | 0.0615 ± 1e-05 µM | – | – | induce apoptosis through activation of caspase-3 | induced apoptosis | – | – |
| COc1cc2ncnc(Nc3ccc(F)c(Cl)c3)c2cc1OCCCN1CCOCC1 [Gefitinib, reference compound] | 51.3 ± 0.17 µM | – | – | – | 98.8 ± 0.56 µM | – | – | – | – | – | 5.01 µM | 5 ± 0.04 µM |
